Target: T1, CYP17A1 (Homo sapiens, UniProt P05093)
T1 sequence (P05093 1-508): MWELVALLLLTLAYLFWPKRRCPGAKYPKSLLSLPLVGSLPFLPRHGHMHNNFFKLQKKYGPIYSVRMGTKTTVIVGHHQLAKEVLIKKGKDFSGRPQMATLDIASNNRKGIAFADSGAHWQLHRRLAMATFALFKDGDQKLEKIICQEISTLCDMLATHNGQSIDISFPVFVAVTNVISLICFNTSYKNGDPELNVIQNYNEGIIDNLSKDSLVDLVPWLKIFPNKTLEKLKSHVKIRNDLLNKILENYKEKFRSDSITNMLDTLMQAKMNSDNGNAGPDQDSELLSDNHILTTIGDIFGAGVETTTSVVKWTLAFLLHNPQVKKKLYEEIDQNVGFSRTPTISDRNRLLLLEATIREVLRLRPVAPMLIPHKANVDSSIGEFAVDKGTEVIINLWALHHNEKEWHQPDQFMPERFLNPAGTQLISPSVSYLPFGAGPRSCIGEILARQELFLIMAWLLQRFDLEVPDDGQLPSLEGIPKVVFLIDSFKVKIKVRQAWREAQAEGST
Test: […]α-hydroxylase activity, conversion of […]-progesterone to […]OH-progesterone, TLC; enzyme source not given
Format: cell-based

Row | Structure (SMILES) | IC50 [nM]
1 | Cc1cc(Nc2cccnc2)ccc1-n1ccc2ccccc21 [compound 20] | 2600
2 | c1ccc2c(c1)ncn2-c1ccc(NC2CCCCC2)cc1 [compound 2] | 1200

From publication PMC8961587, “Synthesis and Structure–Activity Relationships of Novel Non-Steroidal CYP17A1 Inhibitors as Potential Prostate Cancer Agents” (Biomolecules, 2022)
